According to PubChem BioAssay AID2060627 (Molecular Pharmacology Branch, DTP, NCI, 2025):
Several values for one entry are separate records, joined by “and”; a condition that tells them apart may be missing. Identical values can stand only once. One block for each compound: values may come before it.

System: 156681-154-R-J1-PDC complex spheroid viability
Assay: Anticancer human tumor 156681-154-R-J1-PDC patient-derived melanoma cell line growth inhibition [CLK]
Details: for viability, T/C: stronger effect = lower value
Excerpt: A high-throughput screen of multi-cell type tumor spheroids was designed to identify active combinations of […] and targeted small molecules. Complex spheroids include a stromal component modeled by human endothelial cells (HUVEC) and fibroblasts modeled by human mesenchymal stem cells (MSCs). The concentration ranges selected for each drug and investigational agent were based upon clinically achievable concentrations if the clinical Cmax of the agent was known.
Compounds. The drugs and investigational agents: cirtuvivint (SM08502; NSC835563), CC-671 (NSC850746), vemurafenib (NSC761431), tapotoclax (NSC804041), sotorasib (NSC818433), adagrasib (NSC831453), MRTX-1133 (NSC836407), BAY2416964 (NSC825713), copanlisib (NSC816437), inavolisib (NSC800729), abemaciclib (NSC768073), osimertinib (NSC779217), entinostat (NSC756642), eltanexor (KPT-8602, NSC794443), venetoclax (NSC766270), ceralasertib (NSC777638), bortezomib (NSC756655), olaparib (NSC753686), talazoparib (NSC767125), alisertib (NSC759677), peposertib (NSC802822), gemcitabine (NSC613327), 5-fluorouracil (NSC19893), SN-38 (NSC673596), oxaliplatin (NSC266046), paclitaxel (NSC125973), and doxorubicin (NSC123127), were obtained from the National Cancer Institute (NCI) Developmental Therapeutics Program Chemical Repository. The FDA-approved anticancer drug set is available from the Developmental Therapeutics Program at https://dtp.cancer.gov/organization/dscb/obtaining/available plates.htm. […] The stock solutions were prepared in dimethyl sulfoxide (DMSO, Sigma-Aldrich, St. Louis, MO, cat. D2650), except for the platinum complexes which were prepared in saline (Quality Biological, Gaithersburg, MD, cat. 114-055-101), at 800-fold the tested concentration and stored at -70 degrees C prior to their use. All drugs and investigational agents were tested over a range starting from a high concentration at or near the clinical Cmax and decreasing in half-log increments. If the clinical Cmax for an agent had not been determined, the highest concentration tested was 10 microM.
Cell Culture. All cells were maintained in an incubator at 37 degrees C and 5% CO2 with 95% humidity. The PDC lines were cultured according to standard operating procedures established by the NCI PDMR. Briefly, all PDCs were thawed and cultured in Matrigel-coated flasks prepared with a working solution of 1X Ham's F-12 nutrient mix, without supplementation (Invitrogen, Waltham, MA, cat. 11765054), 100 U/mL penicillin-streptomycin (Invitrogen, cat. 15140122), and 2.5% Matrigel (Corning Inc., Corning, NY, cat. 354248) for the first three passages. The 947758-054-R-J2-PDC line was cultured in 6B/Colon 1A media, which includes advanced DMEM/F-12 (Thermo Fisher Scientific, cat. 12634028), 10 mM HEPES (Thermo Fisher Scientific, cat. 15630080), 1X GlutaMAX supplement (Thermo Fisher Scientific, cat. 35050061), 0.1 mg/mL primocin (InvivoGen, cat. ant-pm-2), 10% defined fetal bovine serum, heat inactivated (HyClone Laboratories Inc., cat. SH30070.03HI), 1.25 mM N-Acetyl-L-cysteine (Sigma-Aldrich, cat. A9165), 10 mM nicotinamide (Sigma-Aldrich, cat. N0636), 1X B-27 supplement (Thermo Fisher Scientific, cat. 17504044), 1X N-2 supplement (Thermo Fisher Scientific, cat. 17502048), and 10 microM Y-27632 dihydrochloride (Tocris Bioscience, cat. 1254). The 876862-298-R-J1-PDC was cultured in 6E media, which includes all 6B/Colon 1A media components plus 50% L-WRN conditioned media (ATCC, cat. CRL-3276), 50 ng/mL recombinant human EGF recombinant protein (hEGF; Thermo Fisher Scientific, cat. PHG0311), 10 ng/mL recombinant human fibroblast growth factor 10 (hGFG-10; PeproTech, cat. 100-26), 1 ng/mL recombinant human fibroblast growth factor 2 (hFGF-2; PeproTech, cat. 100-18B), and 1 µM prostaglandin E2 (PGE2; Tocris, cat. 2296). The 227483-062-R1-J1-PDC line was cultured in Panc media, containing all 6E components except hFGF-2, with the addition of 500 nM SB-431542 (Selleckchem, cat. S1067) and 10 nM gastrin (Tocris, cat. 3006). […]

[1] = curve of first compound, second compound 0.0316 µM
[2] = curve of first compound, second compound 0.1 µM
[3] = curve of first compound, second compound 0.316 µM
[4] = curve of first compound, second compound 1 µM
[5] = curve of first compound, second compound 3.16 µM
[6] = curve of first compound, second compound 10 µM
[7] = second compound 0.0316 µM, first compound 0.0316 µM
[8] = second compound 0.0316 µM, first compound 0.1 µM
[9] = second compound 0.0316 µM, first compound 0.316 µM
[10] = second compound 0.0316 µM, first compound 1 µM
[11] = second compound 0.1 µM, first compound 0.0316 µM
[12] = second compound 0.1 µM, first compound 0.1 µM
[13] = second compound 0.1 µM, first compound 0.316 µM
[14] = second compound 0.1 µM, first compound 1 µM
[15] = second compound 0.316 µM, first compound 0.0316 µM
[16] = second compound 0.316 µM, first compound 0.1 µM
[17] = second compound 0.316 µM, first compound 0.316 µM
[18] = second compound 0.316 µM, first compound 1 µM
[19] = second compound 1 µM, first compound 0.0316 µM
[20] = second compound 1 µM, first compound 0.1 µM
[21] = second compound 1 µM, first compound 0.316 µM
[22] = second compound 1 µM, first compound 1 µM
[23] = second compound 3.16 µM, first compound 0.0316 µM
[24] = second compound 3.16 µM, first compound 0.1 µM
[25] = second compound 3.16 µM, first compound 0.316 µM
[26] = second compound 3.16 µM, first compound 1 µM
[27] = second compound 10 µM, first compound 0.0316 µM
[28] = second compound 10 µM, first compound 0.1 µM
[29] = second compound 10 µM, first compound 0.316 µM
[30] = second compound 10 µM, first compound 1 µM
[31] = second compound 0.0316 µM, first compound 0.00316 µM
[32] = second compound 0.0316 µM, first compound 0.01 µM
[33] = second compound 0.1 µM, first compound 0.00316 µM
[34] = second compound 0.1 µM, first compound 0.01 µM
[35] = second compound 0.316 µM, first compound 0.00316 µM
[36] = second compound 0.316 µM, first compound 0.01 µM
[37] = second compound 1 µM, first compound 0.00316 µM
[38] = second compound 1 µM, first compound 0.01 µM
[39] = second compound 3.16 µM, first compound 0.00316 µM
[40] = second compound 3.16 µM, first compound 0.01 µM
[41] = second compound 10 µM, first compound 0.00316 µM
[42] = second compound 10 µM, first compound 0.01 µM
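Also: spheroids exposed to the agents for seven days.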
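For viability, T/C in this document: 100% = DMSO vehicle control viability.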

IC50 [1]: < 0.0316 µM
IC50 [2]: < 0.0316 µM
IC50 [3]: < 0.0316 µM
IC50 [4]: < 0.0316 µM
IC50 [5]: < 0.0316 µM
IC50 [6]: < 0.0316 µM
SMILES: Nc1ccn(C2OC(CO)C(O)C2(F)F)c(=O)n1 (stereo not drawn) + CNC(=O)c1ccc(Nc2nc(OC3CCCC3)c3c(-c4ccc5nc(C)oc5c4)c[nH]c3n2)c(OC)c1
viability, T/C [7]: 12.3%
viability, T/C [8]: 15.9%
viability, T/C [9]: 13.6%
viability, T/C [10]: 17.9%
viability, T/C (second compound 0.0316 µM, first compound 3.16 µM): 15.6%
viability, T/C (second compound 0.0316 µM, first compound 10 µM): 15.2%
viability, T/C [11]: 13.2%
viability, T/C [12]: 13.4%
viability, T/C [13]: 14.2%
viability, T/C [14]: 16.1%
viability, T/C (second compound 0.1 µM, first compound 3.16 µM): 15.7%
viability, T/C (second compound 0.1 µM, first compound 10 µM): 14%
viability, T/C [15]: 15.7%
viability, T/C [16]: 11.9%
viability, T/C [17]: 19%
viability, T/C [18]: 13%
viability, T/C (second compound 0.316 µM, first compound 3.16 µM): 12.2%
viability, T/C (second compound 0.316 µM, first compound 10 µM): 12.5%
viability, T/C [19]: 20.5%
viability, T/C [20]: 11.2%
viability, T/C [21]: 7.8%
viability, T/C [22]: 9.13%
viability, T/C (second compound 1 µM, first compound 3.16 µM): 12.3%
viability, T/C (second compound 1 µM, first compound 10 µM): 10.8%
viability, T/C [23]: 25.3%
viability, T/C [24]: 12.3%
viability, T/C [25]: 9.98%
viability, T/C [26]: 7.12%
viability, T/C (second compound 3.16 µM, first compound 3.16 µM): 11.4%
viability, T/C (second compound 3.16 µM, first compound 10 µM): 7.7%
viability, T/C [27]: 28.5%
viability, T/C [28]: 12.4%
viability, T/C [29]: 9.66%
viability, T/C [30]: 9.99%
viability, T/C (second compound 10 µM, first compound 3.16 µM): 12.1%
viability, T/C (second compound 10 µM, first compound 10 µM): 7.49%

IC50 (curve of compound): 1.33 µM and 0.861 µM
SMILES: COC1C=CCC(C)C(C)S(=O)(=O)NC(=O)c2ccc3c(c2)N(CC2CCC21)CC1(CCCc2cc(Cl)ccc21)CO3 (stereo not drawn)
viability, T/C (compound 0.0316 µM): 86.6% and 107%
viability, T/C (compound 0.1 µM): 85.4% and 73.3%
viability, T/C (compound 0.316 µM): 86.8% and 70.1%
viability, T/C (compound 1 µM): 61.2% and 61.9%
viability, T/C (compound 3.16 µM): 14.6% and 10.7%
viability, T/C (compound 10 µM): 1.35% and 1.31%

IC50 [1]: 0.825 µM
IC50 [2]: 0.429 µM
IC50 [3]: 0.429 µM
IC50 [4]: 0.394 µM
IC50 [5]: < 0.00316 µM
IC50 [6]: < 0.00316 µM
SMILES: CCN1CCN(Cc2ccc(Nc3ncc(F)c(-c4cc(F)c5nc(C)n(C(C)C)c5c4)n3)nc2)CC1 + CNC(=O)c1ccc(Nc2nc(OC3CCCC3)c3c(-c4ccc5nc(C)oc5c4)c[nH]c3n2)c(OC)c1
viability, T/C [31]: 93%
viability, T/C [32]: 104%
viability, T/C [7]: 83.7%
viability, T/C [8]: 84.2%
viability, T/C [9]: 75.5%
viability, T/C [10]: 44.3%
viability, T/C [33]: 50.5%
viability, T/C [34]: 72.3%
viability, T/C [11]: 68.2%
viability, T/C [12]: 57.9%
viability, T/C [13]: 52.9%
viability, T/C [14]: 38.6%
viability, T/C [35]: 85.4%
viability, T/C [36]: 62%
viability, T/C [15]: 72.2%
viability, T/C [16]: 77.8%
viability, T/C [17]: 54%
viability, T/C [18]: 39%
viability, T/C [37]: 51.8%
viability, T/C [38]: 56.5%
viability, T/C [19]: 51.3%
viability, T/C [20]: 60.2%
viability, T/C [21]: 61%
viability, T/C [22]: 24.2%
viability, T/C [39]: 61.6%
viability, T/C [40]: 47.8%
viability, T/C [23]: 40.7%
viability, T/C [24]: 48%
viability, T/C [25]: 46.6%
viability, T/C [26]: 19.8%
viability, T/C [41]: 51.7%
viability, T/C [42]: 38.5%
viability, T/C [27]: 43.8%
viability, T/C [28]: 51%
viability, T/C [29]: 41.9%
viability, T/C [30]: 21.7%

SMILES: COc1c(OCCCN2CCOCC2)ccc2c3n(c(=NC(=O)c4cnc(N)nc4)nc12)CCN3 + CN1CCN(c2cc(C(=O)Nc3cc4cc(-c5cnn(C)c5)ccc4cn3)ccn2)CC1
IC50 [1]: 0.016 µM
IC50 [2]: 0.0129 µM
IC50 [3]: < 0.00316 µM
IC50 [4]: < 0.00316 µM
IC50 [5]: < 0.00316 µM
IC50 [6]: < 0.00316 µM
viability, T/C [31]: 76.1%
viability, T/C [32]: 58.8%
viability, T/C [7]: 36.8%
viability, T/C [8]: 12.7%
viability, T/C [9]: 2.94%
viability, T/C [10]: 0.44%
viability, T/C [33]: 76.2%
viability, T/C [34]: 55.5%
viability, T/C [11]: 29.6%
viability, T/C [12]: 10.3%
viability, T/C [13]: 1.15%
viability, T/C [14]: 0.6%
viability, T/C [35]: 18.1%
viability, T/C [36]: 15%
viability, T/C [15]: 6.26%
viability, T/C [16]: 2.42%
viability, T/C [17]: 1.79%
viability, T/C [18]: 0.42%
viability, T/C [37]: 0.13%
viability, T/C [38]: 0.95%
viability, T/C [19]: 0.12%
viability, T/C [20]: 0.27%
viability, T/C [21]: 0.51%
viability, T/C [22]: 0.4%
viability, T/C [39]: 0.05%
viability, T/C [40]: 0.16%
viability, T/C [23]: 0.12%
viability, T/C [24]: 1.29%
viability, T/C [25]: 1.19%
viability, T/C [26]: 2.81%
viability, T/C [41]: 0.04%
viability, T/C [42]: 1.39%
viability, T/C [27]: 2.94%
viability, T/C [28]: 0.1%
viability, T/C [29]: 0.81%
viability, T/C [30]: 0.71%
